Assay results: ChEMBL document CHEMBL5375999, “Discovery of a Dual Tubulin and Neuropilin-1 (NRP1) Inhibitor with Potent In Vivo Anti-Tumor Activity via Pharmacophore-based Docking Screening, Structure Optimization, and Biological Evaluation” (J Med Chem, 2023)
Active and inactive are the calls of the source. The calls are words filed in the database; no cut-off is given here.

Legend:
[1] = target: AP2-associated protein kinase 1 (Homo sapiens, UniProt Q2M2I8); experiment: Inhibition of AAK1 (unknown origin)
PC-3 [2] = experiment: Induction of cell cycle arrest in human PC-3 cells assessed as S phase cells at 0.5 uM by flow cytometry analysis (reference value: 2%); assay type: functional
[3] = target: Cyclin-dependent kinase 3 (Homo sapiens, UniProt Q00526); experiment: Inhibition of CDK3 (unknown origin)
Cyclin-dependent kinase 3, sequence (Q00526 whole entry): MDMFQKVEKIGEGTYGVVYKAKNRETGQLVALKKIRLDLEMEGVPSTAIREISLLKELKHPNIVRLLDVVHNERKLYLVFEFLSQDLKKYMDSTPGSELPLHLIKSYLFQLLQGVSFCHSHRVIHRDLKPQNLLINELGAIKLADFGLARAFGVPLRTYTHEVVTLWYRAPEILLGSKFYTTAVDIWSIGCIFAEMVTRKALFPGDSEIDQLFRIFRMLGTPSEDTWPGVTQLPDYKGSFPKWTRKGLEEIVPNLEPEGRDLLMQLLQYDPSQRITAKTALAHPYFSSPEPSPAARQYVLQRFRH

PC-3 [4] = experiment: Induction of apoptosis in human PC-3 cells assessed as early apoptotic cells at 0.5 uM by Annexin-V FITC staining based flow cytometry analysis (reference value: 1.51%); assay type: functional
[5] = target: Proto-oncogene tyrosine-protein kinase ROS (Homo sapiens, UniProt P08922); experiment: Inhibition of ROS1 (unknown origin)
Proto-oncogene tyrosine-protein kinase ROS, sequence (P08922 whole entry): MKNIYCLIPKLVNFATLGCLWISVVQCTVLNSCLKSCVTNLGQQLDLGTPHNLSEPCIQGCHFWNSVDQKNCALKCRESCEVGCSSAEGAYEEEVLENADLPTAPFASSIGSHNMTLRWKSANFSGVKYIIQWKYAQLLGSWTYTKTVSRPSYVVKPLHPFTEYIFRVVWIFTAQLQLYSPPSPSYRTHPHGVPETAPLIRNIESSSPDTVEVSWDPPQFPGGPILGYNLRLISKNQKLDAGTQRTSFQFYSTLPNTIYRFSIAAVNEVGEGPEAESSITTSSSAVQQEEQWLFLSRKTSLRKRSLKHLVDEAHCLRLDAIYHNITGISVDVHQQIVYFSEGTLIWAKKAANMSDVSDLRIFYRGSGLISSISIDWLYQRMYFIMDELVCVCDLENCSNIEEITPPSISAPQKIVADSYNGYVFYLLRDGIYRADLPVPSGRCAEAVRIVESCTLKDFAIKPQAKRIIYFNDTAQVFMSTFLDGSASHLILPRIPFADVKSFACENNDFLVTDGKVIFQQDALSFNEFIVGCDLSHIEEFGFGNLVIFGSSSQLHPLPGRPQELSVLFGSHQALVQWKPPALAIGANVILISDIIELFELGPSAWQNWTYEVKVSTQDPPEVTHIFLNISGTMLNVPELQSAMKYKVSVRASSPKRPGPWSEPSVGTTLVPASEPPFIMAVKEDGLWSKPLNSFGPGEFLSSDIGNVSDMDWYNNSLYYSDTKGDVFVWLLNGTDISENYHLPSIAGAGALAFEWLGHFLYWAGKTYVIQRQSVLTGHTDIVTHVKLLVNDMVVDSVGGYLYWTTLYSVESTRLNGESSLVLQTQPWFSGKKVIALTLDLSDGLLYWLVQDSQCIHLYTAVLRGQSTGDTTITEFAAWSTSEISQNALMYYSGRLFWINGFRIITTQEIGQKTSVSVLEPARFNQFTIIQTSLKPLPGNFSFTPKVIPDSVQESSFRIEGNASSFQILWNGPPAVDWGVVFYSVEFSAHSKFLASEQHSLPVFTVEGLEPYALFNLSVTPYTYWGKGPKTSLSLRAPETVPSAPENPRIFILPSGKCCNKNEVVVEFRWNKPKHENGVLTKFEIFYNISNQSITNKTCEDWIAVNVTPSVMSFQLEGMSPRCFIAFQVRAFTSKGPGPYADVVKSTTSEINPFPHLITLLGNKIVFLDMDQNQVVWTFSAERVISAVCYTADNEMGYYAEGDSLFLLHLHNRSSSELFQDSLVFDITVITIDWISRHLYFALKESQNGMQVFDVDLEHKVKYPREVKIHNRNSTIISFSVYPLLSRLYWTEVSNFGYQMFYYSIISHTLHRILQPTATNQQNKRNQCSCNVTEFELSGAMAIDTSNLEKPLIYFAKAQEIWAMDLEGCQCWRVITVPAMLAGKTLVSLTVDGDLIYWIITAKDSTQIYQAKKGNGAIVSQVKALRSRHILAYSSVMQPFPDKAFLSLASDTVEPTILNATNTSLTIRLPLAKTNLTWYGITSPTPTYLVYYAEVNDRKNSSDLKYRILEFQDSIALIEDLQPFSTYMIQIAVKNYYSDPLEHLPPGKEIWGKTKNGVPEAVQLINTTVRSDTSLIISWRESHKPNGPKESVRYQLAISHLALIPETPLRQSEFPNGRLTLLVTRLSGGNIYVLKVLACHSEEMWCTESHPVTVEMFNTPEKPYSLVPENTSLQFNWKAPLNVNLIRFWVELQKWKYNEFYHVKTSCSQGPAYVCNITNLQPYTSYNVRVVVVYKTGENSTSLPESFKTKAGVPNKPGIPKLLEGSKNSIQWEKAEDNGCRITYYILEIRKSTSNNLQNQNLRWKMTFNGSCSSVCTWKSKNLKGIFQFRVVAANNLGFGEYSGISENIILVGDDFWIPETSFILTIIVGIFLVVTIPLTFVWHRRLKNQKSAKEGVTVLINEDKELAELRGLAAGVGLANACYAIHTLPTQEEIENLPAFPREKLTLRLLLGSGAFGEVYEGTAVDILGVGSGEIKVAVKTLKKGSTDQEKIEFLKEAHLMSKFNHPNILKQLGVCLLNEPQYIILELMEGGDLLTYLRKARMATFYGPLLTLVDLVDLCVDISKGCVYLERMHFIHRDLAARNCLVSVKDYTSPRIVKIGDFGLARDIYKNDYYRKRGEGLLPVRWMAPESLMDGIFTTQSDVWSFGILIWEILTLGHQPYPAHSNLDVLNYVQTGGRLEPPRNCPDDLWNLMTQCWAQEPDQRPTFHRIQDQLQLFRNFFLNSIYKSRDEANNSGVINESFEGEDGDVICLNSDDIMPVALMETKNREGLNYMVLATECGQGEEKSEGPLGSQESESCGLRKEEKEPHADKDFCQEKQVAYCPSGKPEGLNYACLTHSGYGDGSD

[6] = Toxicity in BALB/c mouse xenografted with human PC-3 cells assessed as change in kidney morphology at 5 to 10 mg/kg, ip administered every 4 days for 20 days by H and E staining based inverted microscopic assay; assay type: organism-based; details: in vivo, 480 h, dose 5-10 mg/kg, time 20 day
PC-3 [7] = experiment: Induction of apoptosis in human PC-3 cells assessed as early apoptotic cells at 2.5 uM by Annexin-V FITC staining based flow cytometry analysis (reference value: 1.51%); assay type: functional
[8] = target: Tyrosine-protein kinase HCK (Homo sapiens, UniProt P08631); experiment: Inhibition of HCK (unknown origin)
CWR22R = experiment: Cytotoxicity against human 22Rv1 cells assessed as inhibition of cell viability incubated for 48 hrs by MTT assay; assay type: functional, cell-based
[9] = target: Cyclin-dependent kinase 5 (Homo sapiens, UniProt Q00535); experiment: Inhibition of CDK5 (unknown origin)
[10] = target: Serine/threonine-protein kinase ICK (Homo sapiens, UniProt Q9UPZ9); experiment: Inhibition of ICK (unknown origin)
Serine/threonine-protein kinase ICK, sequence (Q9UPZ9 whole entry): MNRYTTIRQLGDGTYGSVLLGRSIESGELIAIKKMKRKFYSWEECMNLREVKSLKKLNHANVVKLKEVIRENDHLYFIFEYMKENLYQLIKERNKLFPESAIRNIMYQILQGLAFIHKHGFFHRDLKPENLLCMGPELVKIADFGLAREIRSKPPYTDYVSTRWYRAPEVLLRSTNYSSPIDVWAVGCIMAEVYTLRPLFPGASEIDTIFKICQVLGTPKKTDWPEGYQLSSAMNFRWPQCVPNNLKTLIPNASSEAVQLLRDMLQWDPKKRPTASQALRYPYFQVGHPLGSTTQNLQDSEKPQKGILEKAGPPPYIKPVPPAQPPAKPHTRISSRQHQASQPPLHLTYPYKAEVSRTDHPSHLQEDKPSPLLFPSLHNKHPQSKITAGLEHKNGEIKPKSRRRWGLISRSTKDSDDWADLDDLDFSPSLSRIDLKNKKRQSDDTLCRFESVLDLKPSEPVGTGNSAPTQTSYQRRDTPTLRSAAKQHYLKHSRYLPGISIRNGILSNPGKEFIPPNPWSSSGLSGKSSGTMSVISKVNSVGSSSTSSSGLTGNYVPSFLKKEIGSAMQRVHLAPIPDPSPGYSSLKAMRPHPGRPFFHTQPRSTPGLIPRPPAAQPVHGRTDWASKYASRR

PC-3 [11] = experiment: Induction of apoptosis in human PC-3 cells assessed as necrotic cells at 12.5 uM by Annexin-V FITC staining based flow cytometry analysis (reference value: 0.059%); assay type: functional
PC-3 [12] = experiment: Induction of cell cycle arrest in human PC-3 cells assessed as increase in p-cdc2 expression at 0.5 to 12.5 uM incubated for 48 hrs by Western blotting analysis; assay type: functional, cell-based; details: dose 0.5-12.5 µM
PC-3 [13] = experiment: Antiangiogenesis activity in human PC-3 cells assessed as appearance of scattered cells at 0.1 to 12.5 uM incubated for 8 to 15 hrs by matrigel based inverted microscopic analysis; assay type: functional, cell-based; details: dose 0.1-12.5 µM, time 8-15 hrs
PC-3 [14] = experiment: Induction of cell cycle arrest in human PC-3 cells assessed as G0/G1 phase cells at 12.5 uM by flow cytometry analysis (reference value: 94.76%); assay type: functional
[15] = target: Serine/threonine-protein kinase PLK1 (Homo sapiens, UniProt P53350); experiment: Inhibition of PLK1 (unknown origin)
[16] = target: Cyclin-dependent kinase 4 (Homo sapiens, UniProt P11802); experiment: Inhibition of CDK4 (unknown origin)
[17] = target: Mitogen-activated protein kinase kinase kinase 20 (Homo sapiens, UniProt Q9NYL2); experiment: Inhibition of ZAK (unknown origin)
[18] = target: Serine/threonine-protein kinase pim-1 (Homo sapiens, UniProt P11309); experiment: Inhibition of PIM1 (unknown origin)
[19] = target: Cyclin-dependent kinase 8 (Homo sapiens, UniProt P49336); experiment: Inhibition of CDK8 (unknown origin)
Cyclin-dependent kinase 8, sequence (P49336 whole entry): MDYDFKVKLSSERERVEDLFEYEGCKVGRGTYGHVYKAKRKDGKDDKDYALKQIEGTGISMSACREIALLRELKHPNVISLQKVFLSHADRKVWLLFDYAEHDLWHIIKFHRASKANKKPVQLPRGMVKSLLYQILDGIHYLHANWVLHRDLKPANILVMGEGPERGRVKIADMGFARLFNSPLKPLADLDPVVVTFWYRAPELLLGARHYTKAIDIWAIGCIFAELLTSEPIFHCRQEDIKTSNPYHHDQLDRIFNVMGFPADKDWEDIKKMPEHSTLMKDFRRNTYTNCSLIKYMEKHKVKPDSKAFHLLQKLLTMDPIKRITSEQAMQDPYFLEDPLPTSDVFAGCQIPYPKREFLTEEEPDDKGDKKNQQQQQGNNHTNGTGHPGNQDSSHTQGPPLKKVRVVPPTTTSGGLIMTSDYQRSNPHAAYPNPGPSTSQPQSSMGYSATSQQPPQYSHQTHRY

[20] = target: Epidermal growth factor receptor (Homo sapiens, UniProt P00533); experiment: Inhibition of EGFR (unknown origin)
HUVEC = experiment: Antimigratory activity against HUVECs at 0.1 to 12.5 uM incubated for 24 to 48 hrs by wound healing assay; assay type: functional, cell-based; details: Homo sapiens, dose 0.1-12.5 µM, time 24-48 hrs
[21] = target: Cyclin-G-associated kinase (Homo sapiens, UniProt O14976); experiment: Inhibition of GAK (unknown origin)
[22] = target: RAC-beta serine/threonine-protein kinase (Homo sapiens, UniProt P31751); experiment: Inhibition of AKT2 (unknown origin)
[23] = Toxicity in BALB/c mouse xenografted with human PC-3 cells assessed as change in lung morphology at 5 to 10 mg/kg, ip administered every 4 days for 20 days by H and E staining based inverted microscopic assay; assay type: organism-based; details: in vivo, 480 h, dose 5-10 mg/kg, time 20 day
Tubulin (Homo sapiens) [24] = target: T1, Tubulin (Homo sapiens) (UniProt P68371+Q9H4B7+P0DPH7+P68366+Q13509+Q71U36+P04350+Q3ZCM7+P07437+P68363+Q9BQE3+Q6PEY2+Q13885+Q9BVA1+Q9BUF5); experiment: Inhibition of tubulin polymerization in human PC-3 cells assessed as cell shrinkage at 0.1 to 12.5 uM incubated for 48 hrs by immunofluorescence assay; assay type: cell-based; details: dose 0.1-12.5 µM
[25] = target: Tyrosine-protein kinase Fgr (Homo sapiens, UniProt P09769); experiment: Inhibition of FGR (unknown origin)
[26] = target: T2, Vascular endothelial growth factor receptor 2 (Homo sapiens, UniProt P35968); experiment: Inhibition of VEGF-induced VEGFR2 signal pathway in HUVECs assessed as reduction in p-VEGFR2 level; assay type: cell-based; details: HUVEC, dose 0.1-12.5 µM
T2 sequence (P35968 whole entry): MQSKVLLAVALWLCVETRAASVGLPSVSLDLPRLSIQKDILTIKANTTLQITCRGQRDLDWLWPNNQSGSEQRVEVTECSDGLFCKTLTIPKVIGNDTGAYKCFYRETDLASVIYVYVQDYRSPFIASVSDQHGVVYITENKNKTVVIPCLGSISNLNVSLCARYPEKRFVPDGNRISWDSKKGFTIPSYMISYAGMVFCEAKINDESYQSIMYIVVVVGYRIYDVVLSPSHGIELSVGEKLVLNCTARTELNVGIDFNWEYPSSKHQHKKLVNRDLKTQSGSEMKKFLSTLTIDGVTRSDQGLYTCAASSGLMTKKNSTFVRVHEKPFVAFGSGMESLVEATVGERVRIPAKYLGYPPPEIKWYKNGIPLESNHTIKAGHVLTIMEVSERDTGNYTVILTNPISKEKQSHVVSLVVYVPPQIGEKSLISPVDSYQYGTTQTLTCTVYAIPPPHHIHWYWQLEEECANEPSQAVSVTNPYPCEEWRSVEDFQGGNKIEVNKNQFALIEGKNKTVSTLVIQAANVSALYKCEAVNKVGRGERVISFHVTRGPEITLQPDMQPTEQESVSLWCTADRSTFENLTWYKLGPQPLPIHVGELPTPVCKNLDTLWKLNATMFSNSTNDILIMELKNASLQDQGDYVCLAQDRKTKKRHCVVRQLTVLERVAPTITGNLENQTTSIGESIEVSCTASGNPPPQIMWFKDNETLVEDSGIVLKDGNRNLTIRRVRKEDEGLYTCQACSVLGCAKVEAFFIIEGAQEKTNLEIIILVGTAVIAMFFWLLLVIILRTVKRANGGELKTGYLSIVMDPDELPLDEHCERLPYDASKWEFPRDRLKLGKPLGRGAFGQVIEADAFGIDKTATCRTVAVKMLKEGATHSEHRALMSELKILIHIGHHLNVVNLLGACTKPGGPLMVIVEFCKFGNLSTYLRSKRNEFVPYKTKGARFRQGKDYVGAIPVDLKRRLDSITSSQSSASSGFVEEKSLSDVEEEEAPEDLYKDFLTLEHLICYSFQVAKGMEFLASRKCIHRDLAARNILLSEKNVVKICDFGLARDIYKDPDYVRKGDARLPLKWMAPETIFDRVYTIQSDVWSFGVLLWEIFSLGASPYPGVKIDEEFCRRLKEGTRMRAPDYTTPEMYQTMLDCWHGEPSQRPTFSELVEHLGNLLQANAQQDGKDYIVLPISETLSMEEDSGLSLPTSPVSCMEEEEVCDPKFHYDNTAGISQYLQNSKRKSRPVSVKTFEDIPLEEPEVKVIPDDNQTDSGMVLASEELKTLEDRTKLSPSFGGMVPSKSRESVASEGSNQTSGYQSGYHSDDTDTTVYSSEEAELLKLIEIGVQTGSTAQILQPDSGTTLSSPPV

Tubulin (Homo sapiens) [27] = target: T1, Tubulin (Homo sapiens); experiment: Inhibition of tubulin polymerization in human PC-3 cells assessed as microtubule destruction at 2.5 to 12.5 uM incubated for 48 hrs by immunofluorescence assay; assay type: cell-based; details: dose 2.5-12.5 µM
[28] = target: Mitogen-activated protein kinase 8 (Homo sapiens, UniProt P45983); experiment: Inhibition of JNK1 (unknown origin)
PC-3 [29] = experiment: Induction of apoptosis in human PC-3 cells assessed as viable cells at 0.5 uM by Annexin-V FITC staining based flow cytometry analysis (reference value: 96.8%); assay type: functional; details: read-out: Activity
PC-3 [30] = experiment: Induction of apoptosis in human PC-3 cells assessed as viable cells at 2.5 uM by Annexin-V FITC staining based flow cytometry analysis (reference value: 96.8%); assay type: functional; details: read-out: Activity
Tubulin (Homo sapiens) [31] = target: T1, Tubulin (Homo sapiens); experiment: Inhibition of tubulin polymerization (unknown origin) at 12 uM by spectrophotometric analysis relative to control; assay type: protein-complex assay
PC-3 [32] = experiment: Induction of apoptosis in human PC-3 cells assessed as late apoptotic cells at 0.1 uM by Annexin-V FITC staining based flow cytometry analysis (reference value: 1.67%); assay type: functional
[33] = target: Serine/threonine-protein kinase MAK (Homo sapiens, UniProt P20794); experiment: Inhibition of MAK (unknown origin)
Tubulin (Homo sapiens) [34] = target: T1, Tubulin (Homo sapiens); experiment: Inhibition of tubulin polymerization in human PC-3 cells assessed as increase in microtubule dispersion incubated for 48 hrs by immunofluorescence assay; assay type: cell-based; details: dose 0.1-12.5 µM
PC-3 [35] = experiment: Induction of cell cycle arrest in human PC-3 cells assessed as S phase cells at 0.1 uM by flow cytometry analysis (reference value: 2%); assay type: functional
PC-3 [36] = experiment: Inhibition of colony formation in human PC-3 cells incubated for 10 days by crystal violet staining based assay; assay type: functional, cell-based; details: dose 0.1-12.5 µM, time 10.0 day
[37] = target: T2, Vascular endothelial growth factor receptor 2; experiment: Inhibition of VEGF-induced VEGFR2 signal pathway in HUVECs assessed as reduction in p-VEGFR2 level at 12.5 uM relative to control; assay type: cell-based; details: HUVEC
Neuropilin-2 = Neuropilin-2 (Homo sapiens, UniProt O60462); experiment: Inhibition of NRP2 (unknown origin)

IC50 [1]: > 10 µM | IC50 [3]: > 10 µM | IC50 [5]: > 10 µM | IC50 [8]: > 10 µM | IC50 [9]: > 10 µM | IC50 [10]: > 10 µM | IC50 [15]: > 10 µM | IC50 [16]: > 10 µM | IC50 [17]: > 10 µM | IC50 [18]: > 10 µM | IC50 [19]: > 10 µM | IC50 [20]: > 10 µM | IC50 [21]: > 10 µM | IC50 [22]: > 10 µM | inhibition (Tubulin (Homo sapiens) [24]): Active | IC50 [25]: > 10 µM | inhibition [26]: Dose-Dependent Effect | inhibition (Tubulin (Homo sapiens) [27]): Active | IC50 [28]: > 10 µM | inhibition (Tubulin (Homo sapiens) [31]): 96% | IC50 [33]: > 10 µM | inhibition (Tubulin (Homo sapiens) [34]): Dose-Dependent Effect | inhibition [37]: 50% | IC50 (Neuropilin-2): > 10 µM
Compound: COc1ccc(/C=C\c2cc(OC)c(OC)c(OC)c2)cc1NC(=O)CCC(=O)N[C@@H](CCCNC(=N)N)C(=O)O
Activity (PC-3 [2]): 6.01% | Activity (PC-3 [4]): 2.95% | Activity [6]: Non-Toxic | Activity (PC-3 [7]): 3.63% | Activity (CWR22R): Active | Activity (PC-3 [11]): 0.083% | Activity (PC-3 [12]): Active | Activity (PC-3 [13]): Active | Activity (PC-3 [14]): 51.13% | Activity (HUVEC): Active | Activity [23]: Non-Toxic | viability at 0.5 µM (PC-3 [29]): 91.6% | viability at 2.5 µM (PC-3 [30]): 89.3% | Activity (PC-3 [32]): 4.49% | Activity (PC-3 [35]): 1.95% | inhibition (PC-3 [36]): Dose-Dependent Effect
